Measured values published in US12048678B2, “Compounds for treating myelin related disorders” (Case Western Reserve University, priority 2018, dated 2024).

Assays:
Format in all cases: cell-based
M1 muscarinic receptor = target: T1, M1 muscarinic receptor (Homo sapiens, UniProt P11229); experiment: Muscarinic receptor antagonism assay (GeneBLAzer M1-NFAT-bla CHO-K1 cells); settings: Compound 1 at 1 μM, TASIN-1 100 nM; concentration maximally effective for oligodendrocyte formation
T1 sequence (P11229 1-460): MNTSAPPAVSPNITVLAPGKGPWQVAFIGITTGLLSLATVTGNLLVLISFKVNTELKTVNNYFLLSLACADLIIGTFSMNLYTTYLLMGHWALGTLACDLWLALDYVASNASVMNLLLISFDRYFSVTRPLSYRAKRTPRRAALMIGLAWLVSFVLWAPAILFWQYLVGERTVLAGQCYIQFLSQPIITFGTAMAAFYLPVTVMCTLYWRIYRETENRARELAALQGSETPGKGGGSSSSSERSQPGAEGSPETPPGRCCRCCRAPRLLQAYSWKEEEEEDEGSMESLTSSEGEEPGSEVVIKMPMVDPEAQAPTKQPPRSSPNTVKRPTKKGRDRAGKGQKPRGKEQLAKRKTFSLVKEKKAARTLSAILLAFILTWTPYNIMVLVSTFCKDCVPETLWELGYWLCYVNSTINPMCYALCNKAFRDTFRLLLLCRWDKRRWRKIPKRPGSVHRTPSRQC
Description: GeneBLAzer M1-NFAT-bla CHO-K1 cells (or M3- or M5-NFAT-bla CHO-K1 cells)(ThermoFisher) were thawed into Assay Media (DMEM, 10% dialyzed FBS, 25 mM HEPES pH 7.3, 0.1 mM NEAA). 10,000 cells/well were added to a 384-well TC treated assay plate and incubated 16-24 h at 37° C. 4 μl of a 10× stock of antimuscarinic molecules was added to the plate and incubated 30 min. 4 μl of 10× control agonist Carbachol at the pre-determined EC80 concentration was added to wells containing antimuscarinic molecules. The plate was incubated 5 h and 8 μl of 1 μM Substrate+Solution D Loading Solution was added to each well and the plate was incubated 2 h at room temperature before reading on a fluorescence plate reader.

[1] = target: T2, estrogen receptor (T47D cells) (Homo sapiens, UniProt P03372); experiment: Estrogen-dependent cell proliferation assay; settings: Compound 1 at 1 μM, TASIN-1 100 nM
T2 construct: estrogen dependent growth of T47D cells; endogenous in cells; host or cells: T47D
T2 sequence (P03372 1-595): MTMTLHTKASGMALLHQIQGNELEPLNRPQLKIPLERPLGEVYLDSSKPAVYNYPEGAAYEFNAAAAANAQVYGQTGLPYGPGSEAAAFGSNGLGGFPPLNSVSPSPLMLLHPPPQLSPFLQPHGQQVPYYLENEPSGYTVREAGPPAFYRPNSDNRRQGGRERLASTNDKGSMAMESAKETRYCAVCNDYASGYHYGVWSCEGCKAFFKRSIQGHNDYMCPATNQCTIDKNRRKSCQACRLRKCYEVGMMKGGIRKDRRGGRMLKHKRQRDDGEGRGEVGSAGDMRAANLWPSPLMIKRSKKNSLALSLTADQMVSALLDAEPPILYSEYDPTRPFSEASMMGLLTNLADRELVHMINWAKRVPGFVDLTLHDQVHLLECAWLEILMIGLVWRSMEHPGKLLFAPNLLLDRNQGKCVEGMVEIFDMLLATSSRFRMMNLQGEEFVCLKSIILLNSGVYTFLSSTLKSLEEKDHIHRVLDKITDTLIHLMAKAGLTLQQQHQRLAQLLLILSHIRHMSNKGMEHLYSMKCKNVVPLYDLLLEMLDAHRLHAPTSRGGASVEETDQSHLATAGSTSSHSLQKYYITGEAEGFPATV
Description: Estrogen-dependent cell proliferation was measured as previously described with minor modifications. After growth in estrogen-free media (Phenol red-free RPMI supplemented with 10% charcoal stripped fetal bovine serum) for 5 days, cells were seeded at 2,500 cells/well into 96 well plates. The following day 3× drug containing media was added to triplicate wells and cells were allowed to grow for an additional 5 days at 37° C. in standard a 5% CO2 humidified incubator. Total DNA per well was measured using an adaptation of the method of Labarca and Paigen. At this time media was removed, cells were washed one time with 0.25×PBS and 100 μl of distilled water was added. […] After incubation at room temperature for 2 hours, plates were read in a SpectraMax i3 fluorescent plate reader (Molecular Devices, Sunnyvale, CA) with excitation at 360 nm and emission at 460 nm. All values were converted to microgram DNA per well using a standard curve derived from purified salmon testes DNA.

kappa opioid receptor = kappa opioid receptor (Homo sapiens, UniProt P41145); experiment: k-Opioid receptor agonism assay (Tango  U2OS cells); settings: Compound 1 at 1 μM, TASIN-1 100 nM, U50488 2 μM
kappa opioid receptor, sequence (P41145 whole entry): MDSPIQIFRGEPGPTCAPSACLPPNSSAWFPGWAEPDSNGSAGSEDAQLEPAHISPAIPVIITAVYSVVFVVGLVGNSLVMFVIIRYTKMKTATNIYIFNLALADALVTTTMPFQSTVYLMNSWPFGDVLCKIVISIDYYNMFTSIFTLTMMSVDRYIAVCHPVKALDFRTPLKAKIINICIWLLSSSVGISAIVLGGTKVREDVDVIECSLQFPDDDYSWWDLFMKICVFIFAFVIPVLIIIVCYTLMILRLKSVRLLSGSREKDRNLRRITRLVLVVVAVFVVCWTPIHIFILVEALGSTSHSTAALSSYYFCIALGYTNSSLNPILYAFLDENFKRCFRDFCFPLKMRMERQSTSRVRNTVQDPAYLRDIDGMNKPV

COc1ccc(S(=O)(=O)N2CCC(N3CCC(C)CC3)CC2)cc1 [TASINI, TASIN-1, reference compound]
little affinity: effect in cell-based assay for the M1 muscarinic receptor (M1 muscarinic receptor) | effect in cell-based assay for the estrogen receptor (estrogen dependent growth of T47D cells) [1] | effect in cell-based assay for the kappa opioid receptor (kappa opioid receptor)
